Data taken from patent US20020132812A1, “Oral hypoglycaemic agents” (priority 2000, published 2002).

Experiments:
rat pancreatic α-cells = experiment: Ca2+-dependent exocytosis (cell capacitance) in single rat pancreatic α-cells; type: cell-based
Description: Male Lewis rats (250-300 g; Møllegaard, Lille Skensved, Denmark) were anaesthetised by pentobarbital (100 mg/kg i.p.). After removal of the pancreas, islets were isolated by collagenase digestion and dispersed into single cells using dispase (Sigma). The α-cells were then separated by fluorescence-activated cell sorting as described elsewhere (Josefsen et al. J. Endocrinol., Vol.149, pp.145-154, 1996). Based on the hormone contents and their glucose sensitivities, we estimate that the preparation contains >80% α-cells and <3% β-cells. […]
Patch pipettes were drawn from borosilicate glass capillaries. […] The currents were recorded using an Axopatch 200B patch clamp amplifier (Axon Instruments, Foster City, Calif., USA), digitized and stored in a computer using the Digidata AD-converter and the software pClamp (version 6.0; Axon Instruments). Alternatively, KATP-currents were recorded using an EPC-9 patch clamp amplifier and the Pulse software (v. 8.01; HEKA Elektronik, Lamprecht/Pfalz, Germany). Exocytosis was monitored as increases in cell membrane capacitance (Neher & Marty Proc. Natl. Acad, Sci. USA, Vol. 79, pp. 6712-6716,1982) using the standard whole-cell configuration of the patch-clamp technique and an EPC-9 patch-clamp amplifier and the Pulse software (v. 8.01; HEKA Elektronik). […]

[1] = test system: isolated perfused rat pancreas; experiment: Insulin release from isolated perfused rat pancreas
Description: The effect of the compounds of the invention on the insulin release from isolated perfused rat pancreas can be investigated as exemplified below with the title compound of Example 2 (compound (Ex 2). In the example described, the investigation is carried out at 2.8 mM and 8.3 mM glucose.
Male Sprague Dawley rats (body weight around 300 g) were anaesthetised with a mixture of Hypnorm® (Janssen Pharma) and Dormicum® (Roche) and the pancreas was cannulated and isolated a described by Sturis et al., Am. J. Physiol. 269, E786-E792, 1995. The organ was placed at 37° C. in a humidified perfusion chamber and perfused with a […] gassed bicarbonated Krebs Ringer, 4% Dextran buffer from a pump delivering 71% of the total volume and from a pump delivering 29% volume of the same buffer with added BSA (0.2% final concentration) and glucose (2.8 mM or 8.3 mM final concentration). The 29% pump also delivered compund (Ex 2) at 10^−5 M in the interval t=20-40 min and at 10^−4 M in the interval t=60-80 min. The pancreata were acclimatised for 20 min before start of sampling at 1 fraction of ca 1900 μl/min for 100 min. Aliquots of 200 μl were frozen away at −20° C. for subsequent insulin ELISA using guinea pig anti-insulin antibodies. The results are shown in FIG. 7 and are expressed as fmol insulin released per pancreas per min. Each plot represents one pancreas, except 8.3 mM glucose alone mean of n=2. […] In the pancreas infused with 8.3 mM glucose and compound (Ex 2) there was an initial noise in the interval t=0-20 min which was due to a mechanical problem with the tubing. […] When 10^−4 M compound (Ex 2) was added at t=60 min there was a classic first-phase insulin release peaking at 3000 fmol/min, followed by second-phase release. […] We have evidence that non-reversal may be due to the low BSA concentration (0.2%) in the perfusate.
In the pancreas perfused with compound (Ex 2) at 2.8 mM glucose, the insulin secretion was only about 10% of that seen at 8.3 mM glucose (max. 250 fmol/min) with 10^−4 M compound (Ex 2) while the control pancreas secretion was flat at ca 20 fmol/min.

COc1cccc(C(CC2=NCCN2)c2ccccn2)c1 (single isomer, unassigned; (-)) [compound (Ex 2), (−)-2-(2-(4,5-Dihydro-1H-imidazol-2-yl)-1-(3-methoxyphenyl)ethyl)pyridine]
rate of exocytosis (ΔCm/Δt) measured over the first 60 s after establishment of the whole-cell configuration (rat pancreatic α-cells; 100 μM compound in pipette solution, free Ca2+ 2 μM, control 16.8±2.5 fF/s, n=5): 4.6±0.7 fF/s
effect on Ca2+-dependent exocytosis (in words) (rat pancreatic α-cells; 0.1 mM compound, Ca2+ 2 μM): strong inhibition of the exocytotic response
insulin secretion, max. ([1]; 2.8 mM glucose, 10^-4 M compound, control pancreas ca 20 fmol/min): 250 fmol/min
first-phase insulin release, peak ([1]; 8.3 mM glucose, 10^-4 M compound added at t=60 min, 8.3 mM glucose alone 300 up to ca 700 fmol/min): 3000 fmol/min
effect on insulin secretion (in words) ([1]; 8.3 mM glucose, 10^-5 M compound, t=20-40 min): small increase in insulin secretion
insulin secretion at 2.8 mM glucose as share of that seen at 8.3 mM glucose ([1]; 10^-4 M compound): about 10%
